Data taken from patent US20060228706A1, “Methods of diagnosing and treating diabetes and insulin resistance” (Metabolex, Inc., priority 2002, published 2006).
Values joined by “and” are separate entries in the source; they are usually repeats but may differ in a detail not shown here. Equal values may be shown once.

Legend:
[1] = molecular target: T1, hP2RY1 (Homo sapiens, UniProt P47900); test: Glucose transport analysis in 3T3-L1 adipocytes over-expressing hP2RY1 (adenovirus); format: cell-based
T1 construct: expressed in transfected cells; host or cells: differentiated murine 3T3-L1 adipocytes (A2) or differentiated L6 myotubes (A4), infected with recombinant adenovirus
Protocol: (§1) In some instances another analysis called “glucose transport” was used. This involves over-expressing the gene in either differentiated 3T3-L1 adipocytes or differentiated L6 myotubes and then monitoring the ability of insulin to stimulate glucose transport into these two cell types. A recombinant adenovirus encoding the human gene tagged with a FLAG epitope tag was prepared essentially as described in Zhou et al., Proc. Nat. Acad. Sci. USA. 95:2509-2514 (1998). 3T3-L1 adipocytes or L6 myotubes were infected with recombinant adenovirus expressing the human gene. A virus expressing an irrelevant protein was used as the control. Twenty four hours post infection the cells are stimulated with increasing concentrations of insulin and glucose transport into the cells determined by the counting the accumulation of a radiolabelled glucose analog (2-deoxyglucose) essentially as described in Kotani et al., Mol. Cell. Biol. 18:6971-6982 (1998), Fujishiro et al., J. Biol. Chem. 276:19800-19806 (2001), Ross et al., Biochem. Biophys. Res. Commun. 302:354-358 (2003)

[2] = system: 3T3-L1 adipocytes; test: Glucose transport analysis in 3T3-L1 adipocytes (2-deoxyglucose uptake), cells not expressing hP2RY1; format: cell-based, murine; settings: basal glucose transport (no insulin), 2-MeSADP 1 μM for 6 hours, mean of 5 experiments
Protocol: as §1

[3] = system: L6 myotubes; test: Glucose transport analysis in L6 myotubes (2-deoxyglucose uptake), cells not expressing hP2RY1; format: cell-based; settings: basal glucose transport (no insulin), 2-MeSADP 1 μM for 6 hours
Protocol: as §1

[4] = molecular target: T1, hP2RY1; test: Glucose transport analysis in L6 myotubes over-expressing hP2RY1 (adenovirus); format: cell-based
Protocol: as §1

T1 sequence (P47900 whole entry): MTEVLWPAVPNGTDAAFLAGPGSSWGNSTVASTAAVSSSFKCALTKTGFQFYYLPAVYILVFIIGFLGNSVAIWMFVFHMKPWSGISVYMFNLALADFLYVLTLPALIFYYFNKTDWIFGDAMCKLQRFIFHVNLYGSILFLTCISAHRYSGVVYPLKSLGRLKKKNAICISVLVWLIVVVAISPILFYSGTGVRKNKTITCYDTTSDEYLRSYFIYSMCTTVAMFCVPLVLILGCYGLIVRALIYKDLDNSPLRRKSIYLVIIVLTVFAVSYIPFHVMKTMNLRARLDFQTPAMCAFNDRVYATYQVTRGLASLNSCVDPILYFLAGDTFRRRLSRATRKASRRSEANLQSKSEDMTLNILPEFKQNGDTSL

With CSc1nc(N)c2ncn([C@@H]3O[C@H](COP(=O)(O)OP(=O)(O)O)[C@@H](O)[C@H]3O)c2n1 [2-MeSADP] the “basal glucose transport, result in words” value ([1]; 3T3-L1 adipocytes with or without hP2RY1) was “can be stimulated by a P2RY1 agonist but only when the hP2RY1 is expressed in the cells”, the “Fold Change 2 (Basal plus P2RY1 plus 2-MeSADP)/(Basal no P2RY1 no 2-MeSADP), Mean +/− SEM (n = 5)” value ([1]; basal glucose transport (no insulin), hP2RY1-expressing 3T3-L1 adipocytes, 2-MeSADP 1 μM for 6 hours, mean of 5 experiments) was 2.11 +/− 0.34 and the “Fold Change 1 (Basal plus 2-MeSADP)/(Basal no 2-MeSADP), Mean +/− SEM (n = 5)” value [2] was 1.07 +/− 0.13. For the same compound, the “Fold Change 1 (Basal plus 2-MeSADP)/(Basal no 2-MeSADP), Mean (n = 2)” value ([3]; mean of 2 experiments) was 0.97, the “Fold Change 1 (Basal plus 2-MeSADP)/(Basal no 2-MeSADP)” value ([3]; single experiments) was 0.99 and 0.95 and the “basal glucose transport, result in words” value ([4]; L6 myotubes with or without hP2RY1) was “can be stimulated by a P2RY1 agonist but only when the hP2RY1 is expressed in the cells”. The “Fold Change 2 (Basal plus P2RY1 plus 2-MeSADP)/(Basal no P2RY1 no 2-MeSADP), Mean (n = 2)” value ([4]; basal glucose transport (no insulin), hP2RY1-expressing L6 myotubes, 2-MeSADP 1 μM for 6 hours, mean of 2 experiments) was 1.81 and the “Fold Change 2 (Basal plus P2RY1 plus 2-MeSADP)/(Basal no P2RY1 no 2-MeSADP)” value ([4]; basal glucose transport (no insulin), hP2RY1-expressing L6 myotubes, 2-MeSADP 1 μM for 6 hours, single experiments) was 1.71 and 1.91.
